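The compound was tested at five concentrations on cells cultured in 96-well plates, with a 48-hour exposure period. GI50 is the concentration that inhibits growth by half.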 The source made the active and inactive calls. Rule as the data show it: active = GI50 up to about 1.1 µM and inactive = higher.
Experiments:
Assay in all cases: NCI tumour cell line growth inhibition, 48 h
SNB-19 = tested on: SNB-19
K562 = tested on: K562
OVCAR-5 = tested on: OVCAR-5
MDA-MB-435 = tested on: MDA-MB-435
HCT-116 = tested on: HCT-116
BT-549 = tested on: BT-549
CAKI-1 = tested on: CAKI-1
MDA-MB-231 = tested on: MDA-MB-231
SW-620 = tested on: SW-620
U-251 = tested on: U-251
NCI/ADR-RES = tested on: NCI/ADR-RES
EKVX = tested on: EKVX
SF-295 = tested on: SF-295
UACC-257 = tested on: UACC-257
HOP-62 = tested on: HOP-62
MDA-N = tested on: MDA-N
HCC 2998 = tested on: HCC 2998
SK-MEL-5 = tested on: SK-MEL-5
OVCAR-4 = tested on: OVCAR-4
PC-3 = tested on: PC-3
HOP-92 = tested on: HOP-92
HT-29 = tested on: HT-29
OVCAR-3 = tested on: OVCAR-3
SN12C = tested on: SN12C
SR = tested on: SR
A549 = tested on: A549
SF-268 = tested on: SF-268
UACC-62 = tested on: UACC-62
COLO 205 = tested on: COLO 205
SF-539 = tested on: SF-539
MOLT-4 = tested on: MOLT-4
HCT-15 = tested on: HCT-15
HL-60 = tested on: HL-60
M14 = tested on: M14
ACHN = tested on: ACHN
MCF7 = tested on: MCF7
Hs-578T = tested on: Hs-578T
786-0 = tested on: 786-0
DU-145 = tested on: DU-145
LOX IMVI = tested on: LOX IMVI
KM12 = tested on: KM12
RXF 393 = tested on: RXF 393
UO-31 = tested on: UO-31
Malme-3M = tested on: Malme-3M
NCI-H460 = tested on: NCI-H460
OVCAR-8 = tested on: OVCAR-8
NCI-H522 = tested on: NCI-H522
NCI-H23 = tested on: NCI-H23
SK-MEL-28 = tested on: SK-MEL-28
IGROV-1 = tested on: IGROV-1
SK-OV-3 = tested on: SK-OV-3
SK-MEL-2 = tested on: SK-MEL-2
A498 = tested on: A498
CCRF-CEM = tested on: CCRF-CEM
NCI-H226 = tested on: NCI-H226
T47D = tested on: T47D
SNB-75 = tested on: SNB-75
TK-10 = tested on: TK-10
RPMI-8226 = tested on: RPMI-8226

With `CC(C)Oc1cccc(N2C(Nc3ccccc3)=Nc3ccncc3S2(=O)=O)c1` the GI50 (SNB-19) was 34.8 µM (inactive), the GI50 (K562) was 76 µM (inactive) and the GI50 (OVCAR-5) was 48.1 µM (inactive). For the same molecule, the GI50 (MDA-MB-435) was 11.8 µM (inactive), the GI50 (HCT-116) was 20.4 µM (inactive) and the GI50 (BT-549) was 22.4 µM (inactive). The GI50 (CAKI-1) was 26 µM (inactive), the GI50 (MDA-MB-231) was 15.2 µM (inactive) and the GI50 (SW-620) was 17.3 µM (inactive). The GI50 (U-251) was 7.67 µM (inactive), the GI50 (NCI/ADR-RES) was 19.3 µM (inactive) and the GI50 (EKVX) was 40.5 µM (inactive). For the same molecule, the GI50 (SF-295) was 23.1 µM (inactive), the GI50 (UACC-257) was 17.4 µM (inactive) and the GI50 (HOP-62) was 32.7 µM (inactive). The GI50 (MDA-N) was 23.1 µM (inactive), the GI50 (HCC 2998) was 1.69 µM (inactive) and the GI50 (SK-MEL-5) was 4.12 µM (inactive). The GI50 (OVCAR-4) was 15.6 µM (inactive), the GI50 (PC-3) was 6.12 µM (inactive) and the GI50 (HOP-92) was 16.2 µM (inactive). For the same molecule, the GI50 (HT-29) was 12.2 µM (inactive), the GI50 (OVCAR-3) was 18.4 µM (inactive) and the GI50 (SN12C) was 30.8 µM (inactive). The GI50 (SR) was 10.9 µM (inactive), the GI50 (A549) was 20.4 µM (inactive) and the GI50 (SF-268) was 38.9 µM (inactive). The GI50 (UACC-62) was 19.9 µM (inactive), the GI50 (COLO 205) was 13.1 µM (inactive) and the GI50 (SF-539) was 23.8 µM (inactive). The GI50 (MOLT-4) was > 100 µM (inactive), the GI50 (HCT-15) was 20.2 µM and the GI50 (HL-60) was 0.41 µM (active). The GI50 (M14) was 25.3 µM (inactive), the GI50 (ACHN) was 26.5 µM (inactive) and the GI50 (MCF7) was 17.6 µM (inactive). The GI50 (Hs-578T) was 39.7 µM (inactive), the GI50 (786-0) was 17.7 µM (inactive) and the GI50 (DU-145) was 42.4 µM (inactive). For the same molecule, the GI50 (LOX IMVI) was 17.7 µM (inactive), the GI50 (KM12) was 20.7 µM (inactive) and the GI50 (RXF 393) was 21.9 µM (inactive). For the same molecule, the GI50 (UO-31) was 19.1 µM (inactive), the GI50 (Malme-3M) was 23.2 µM (inactive) and the GI50 (NCI-H460) was 13.3 µM (inactive). The GI50 (OVCAR-8) was 18.2 µM (inactive), the GI50 (NCI-H522) was 30.6 µM (inactive) and the GI50 (NCI-H23) was 32.9 µM (inactive). For the same molecule, the GI50 (SK-MEL-28) was 0.32 µM (active), the GI50 (IGROV-1) was 25.4 µM (inactive) and the GI50 (SK-OV-3) was 44 µM (inactive). The GI50 (SK-MEL-2) was 7.01 µM (inactive), the GI50 (A498) was 25.7 µM (inactive) and the GI50 (CCRF-CEM) was 7.55 µM (inactive). For the same molecule, the GI50 (NCI-H226) was 24.1 µM (inactive), the GI50 (T47D) was 13.8 µM (inactive) and the GI50 (SNB-75) was > 100 µM (inactive).

In the case of `CSC(=NC1=NC(C(F)(F)F)(C(F)(F)F)N=C(c2ccccc2)O1)SC`, the GI50 (SNB-19) was 5.22 µM (inactive), the GI50 (K562) was 6.1 µM (inactive) and the GI50 (OVCAR-5) was 26.4 µM (inactive). The GI50 (MDA-MB-435) was 17.5 µM (inactive), the GI50 (HCT-116) was 4.01 µM (inactive) and the GI50 (BT-549) was 10.8 µM (inactive). The GI50 (CAKI-1) was 4.49 µM (inactive), the GI50 (MDA-MB-231) was 20.3 µM (inactive) and the GI50 (TK-10) was 7.93 µM (inactive). The GI50 (SW-620) was 9.38 µM (inactive), the GI50 (U-251) was 4.12 µM (inactive) and the GI50 (NCI/ADR-RES) was 5.31 µM (inactive). For the same molecule, the GI50 (EKVX) was 9.27 µM (inactive), the GI50 (SF-295) was 7.13 µM (inactive) and the GI50 (UACC-257) was 22 µM (inactive). For the same molecule, the GI50 (HOP-62) was 9.1 µM (inactive), the GI50 (MDA-N) was 17.3 µM (inactive) and the GI50 (HCC 2998) was 12.5 µM (inactive). For the same molecule, the GI50 (SK-MEL-5) was 16.1 µM (inactive), the GI50 (OVCAR-4) was 10.3 µM (inactive) and the GI50 (PC-3) was 5.14 µM (inactive). The GI50 (HOP-92) was 7.8 µM (inactive), the GI50 (HT-29) was 16.4 µM (inactive) and the GI50 (OVCAR-3) was 7.46 µM (inactive). For the same molecule, the GI50 (SN12C) was 17.1 µM (inactive), the GI50 (SR) was 10.7 µM (inactive) and the GI50 (A549) was 10.5 µM (inactive). For the same molecule, the GI50 (SF-268) was 5.07 µM (inactive), the GI50 (UACC-62) was 20 µM (inactive) and the GI50 (COLO 205) was 14.6 µM (inactive). The GI50 (SF-539) was 29.2 µM (inactive), the GI50 (MOLT-4) was 6.07 µM (inactive) and the GI50 (HCT-15) was 4.88 µM. The GI50 (HL-60) was 30.9 µM (inactive), the GI50 (M14) was 19 µM (inactive) and the GI50 (ACHN) was 3.53 µM (inactive). The GI50 (MCF7) was 14.8 µM (inactive), the GI50 (Hs-578T) was 14.2 µM (inactive) and the GI50 (786-0) was 16.4 µM (inactive). For the same molecule, the GI50 (DU-145) was 6.9 µM (inactive), the GI50 (LOX IMVI) was 5.75 µM (inactive) and the GI50 (KM12) was 4.91 µM (inactive). The GI50 (RXF 393) was 5.77 µM (inactive), the GI50 (UO-31) was 24 µM (inactive) and the GI50 (Malme-3M) was 16.3 µM (inactive). The GI50 (NCI-H460) was 12.2 µM (inactive), the GI50 (OVCAR-8) was 5.98 µM (inactive) and the GI50 (NCI-H522) was 3.1 µM (inactive). The GI50 (NCI-H23) was 7.31 µM (inactive), the GI50 (SK-MEL-28) was 38.7 µM (inactive) and the GI50 (SK-OV-3) was 16.4 µM (inactive). For the same molecule, the GI50 (SK-MEL-2) was 16 µM (inactive), the GI50 (A498) was 17.7 µM (inactive) and the GI50 (CCRF-CEM) was 6.92 µM (inactive). For the same molecule, the GI50 (NCI-H226) was 26.9 µM (inactive), the GI50 (T47D) was 3.1 µM (inactive) and the GI50 (SNB-75) was 3.15 µM (inactive).

For `O=[N+]([O-])c1ccc2sc(/C=N/c3cnccn3)cc2c1`, the GI50 (SNB-19) was 65 µM (inactive), the GI50 (K562) was 21.4 µM (inactive) and the GI50 (OVCAR-5) was 36.4 µM (inactive). The GI50 (MDA-MB-435) was 18.4 µM (inactive), the GI50 (HCT-116) was 37 µM (inactive) and the GI50 (BT-549) was 85.7 µM (inactive). For the same molecule, the GI50 (CAKI-1) was 57.3 µM (inactive), the GI50 (MDA-MB-231) was 23.7 µM (inactive) and the GI50 (TK-10) was 30.3 µM (inactive). The GI50 (SW-620) was 25 µM (inactive), the GI50 (U-251) was 20.9 µM (inactive) and the GI50 (NCI/ADR-RES) was 70.3 µM (inactive). The GI50 (EKVX) was 39.1 µM (inactive), the GI50 (SF-295) was 35.4 µM (inactive) and the GI50 (UACC-257) was 27.8 µM (inactive). The GI50 (HOP-62) was 29.1 µM (inactive), the GI50 (MDA-N) was 24.1 µM (inactive) and the GI50 (HCC 2998) was 18.7 µM (inactive). For the same molecule, the GI50 (SK-MEL-5) was 45.8 µM (inactive), the GI50 (PC-3) was 31 µM (inactive) and the GI50 (HOP-92) was 60.1 µM (inactive). For the same molecule, the GI50 (HT-29) was 39.2 µM (inactive), the GI50 (OVCAR-3) was 23.7 µM (inactive) and the GI50 (SN12C) was 45.6 µM (inactive). For the same molecule, the GI50 (SR) was 14.5 µM (inactive), the GI50 (A549) was 64.9 µM (inactive) and the GI50 (SF-268) was 27.2 µM (inactive). For the same molecule, the GI50 (UACC-62) was 17.1 µM (inactive), the GI50 (COLO 205) was 39.8 µM (inactive) and the GI50 (SF-539) was 31.6 µM (inactive). The GI50 (MOLT-4) was 10.7 µM (inactive), the GI50 (HCT-15) was 34.4 µM and the GI50 (HL-60) was 14.2 µM (inactive). The GI50 (M14) was 37.2 µM (inactive), the GI50 (ACHN) was 30.9 µM (inactive) and the GI50 (MCF7) was 5.74 µM (inactive). The GI50 (Hs-578T) was 16.7 µM (inactive), the GI50 (786-0) was 33.5 µM (inactive) and the GI50 (DU-145) was 21.5 µM (inactive). The GI50 (RPMI-8226) was 16 µM (inactive), the GI50 (LOX IMVI) was 22.8 µM (inactive) and the GI50 (KM12) was 57.5 µM (inactive). The GI50 (RXF 393) was 0.597 µM (active), the GI50 (UO-31) was 24.1 µM (inactive) and the GI50 (Malme-3M) was 37 µM (inactive). For the same molecule, the GI50 (NCI-H460) was 31 µM (inactive), the GI50 (OVCAR-8) was 45.4 µM (inactive) and the GI50 (NCI-H522) was 32.5 µM (inactive). For the same molecule, the GI50 (NCI-H23) was 63 µM (inactive), the GI50 (SK-MEL-28) was 28.3 µM (inactive) and the GI50 (IGROV-1) was 58.3 µM (inactive). The GI50 (SK-OV-3) was 30.4 µM (inactive), the GI50 (SK-MEL-2) was 23.2 µM (inactive) and the GI50 (A498) was 27.4 µM (inactive). The GI50 (CCRF-CEM) was 13.7 µM (inactive), the GI50 (T47D) was 0.714 µM (active) and the GI50 (SNB-75) was 0.861 µM (active).

— ChEMBL document CHEMBL1201862, “PubChem BioAssay data set” (2004)
